How the values were obtained:
[1] = Europium titration experiments for determining extinction coefficients; assay type: physicochemical
Description: In order to determine accurate extinction coefficients for 16 and 16⋅Eu, titration experiments using europium chloride as the titrant were performed. Europium chloride hexahydrate (13.22 mg, 0.03608 mmol) was dissolved into 5 mM citrate buffer (pH=4) using a 100 mL volumetric flask to give a 0.3608 mM europium chloride solution, which was then titrated into a 0.5 mL solution of 16 in TBS buffer (Tris-buffered saline, 50 mM Tris, 150 mM NaCl, pH=7.6) using 5 μL aliquots. The UV-vis spectra were adjusted for the increase in solvent volume due to each injection. The results of the UV-vis titration are plotted in FIG. 3.
The volume of europium chloride corresponds to 16.70 nmol of europium, meaning the starting concentration of ligand 16 was 33.40 μM. […] These absorbance and concentration values yield extinction coefficients of 13,600 M^−1 cm^−1 and 14,300 M^−1 cm^−1 for the ligand 16 and the complex 16⋅Eu respectively.
In order to determine accurate extinction coefficients for 43 and 43⋅Eu, titration experiments using europium chloride as the titrant were performed. Europium chloride hexahydrate (47.58 mg, 0.1299 mmol) was dissolved into 50 mM citrate buffer (pH=4) using a 10 mL volumetric flask to give a 12.99 mM europium chloride solution, which was then transferred to a 100 mL volumetric flask and diluted 1:10 with water. The resulting 1.299 mM europium chloride solution (in 5 mM citrate buffer) was then titrated into a 1 mL solution of 43 in TBS buffer using 5 μL aliquots. The UV-vis spectra were adjusted for the increase in solvent volume due to each injection. The results of the UV-vis titration are plotted in FIG. 4.
The volume of europium chloride corresponds to 47.46 nmol of europium, meaning the starting concentration of ligand 43 was 47.46 μM. […] These absorbance and concentration values yield extinction coefficients of 13,000 M^−1 cm^−1 and 12,800 M^−1 cm^−1 for the ligand and complex respectively.
Titration of ligand 43 was also performed by luminescence (FIG. 5), monitoring the europium signal at 612 nm upon photoexcitation of the solution at 340 nm. The ligand solution used for the UV-vis titration of 43 mentioned above was first diluted 1:10 in TBS buffer. Similarly, the 1.299 mM stock europium solution was separately diluted 1:10 with water. […] The 32.99 μL equivalence point gives extinction coefficients of 14,400 M^−1 cm^−1 at 383 nm and 14,200 M^−1 cm^−1 at 357 nm for 43 and 43⋅Eu respectively. Averaging the values from both UV-vis and luminescence titration experiments of 43 yields extinction coefficients of 13,700 M^−1 cm^−1 at 383 nm and 13,500 M^−1 cm^−1 at 357 nm for 43 and 43⋅Eu respectively.

[2] = Photophysical characterization of Eu complexes (UV-vis absorption, quantum yield, lifetime); assay type: physicochemical
Description: The europium complexes of ligands 16, 29, 33, 40, and 43 were prepared by separately dissolving each ligand (2 mg) into methanol (200 μL). Excess europium chloride hexahydrate (˜5 equivalents) was dissolved in methanol (200 μL) and the full volume was added to each of the ligand solutions. The solvent was removed, and the residue was dissolved into DMF (50 μL). The europium complexes were then purified by semi-prep HPLC on an Agilent 1260 Infinity instrument using an Eclipse XDB-C18 column (5 μm, 9.4×250 mm). The mobile phase was 10 to 30% acetonitrile in water containing 0.1% trifluoroacetic acid. The volatiles were removed from the HPLC eluents under vacuum, and the residues were separately dissolved into methanol (500 μL) to give methanolic stock solutions of each europium complex with greater than 98% purity. A few drops of these methanolic solutions were evaporated to dryness, and then the residue was dissolved into TBS buffer at a concentration of ca. 3 μM to make aqueous stock solutions (20 mL) with an absorbance of 0.05 (1 cm path length) at 365 nm. Five dilutions (1/6, 2/6, 3/6, 4/6, and 5/6) were made from these aqueous stock solutions to yield six samples with evenly spaced concentrations (3 mL volume each). Quinine sulfate dissolved in 0.05 M sulfuric acid was similarly diluted to a final absorbance of 0.05 at 365 nm, and this solution was similarly (1/6, 2/6, 3/6, 4/6, and 5/6) diluted to afford six quinine sulfate reference samples of evenly spaced concentration. Quinine sulfate in 0.05 M sulfuric acid was used as the quantum yield standard (Φ=0.508). By measuring the absorbance and luminescence of these dilute solutions, the quantum yields of the new Eu complexes were determined. A 5 cm path-length quartz cell was used to measure the absorbance of these dilute solutions in order to improve the UV-vis signal-to-noise. Steady state photoluminescence measurements were collected in a 1 cm fluorescence cuvette at 365 nm excitation wavelength, 1 nm resolution, 10 nm excitation slit width, 1 nm emission slit width, and 0.2 sec integration time on an instrument that has been described elsewhere (D'Aléo, A.; Moore, E. G.; Szigethy, G.; Xu, J.; Raymond, K. N. Inorg. Chem. 2009, 48, 9316.). Absorption spectra were measured at 1 nm resolution, and the absorbance of each sample was taken as the average absorbance measured from 360-370 nm to reflect the 10 nm excitation slit width used for luminescence measurements. The data derived from these experiments, and from the titration experiments in example 11 are tabulated below.

extinction coefficient ([1]; UV-vis titration with europium chloride, TBS buffer pH 7.6, at lambda max): 12,800 M^−1 cm^−1
lambda max ([1]; UV-vis titration, TBS buffer): 357 nm
extinction coefficient, average of UV-vis and luminescence titration ([1]; at 383 nm (ligand) / 357 nm (complex)): 13,500 M^−1 cm^−1
ε at λmax ([1]; by europium titration, TBS buffer pH 7.6): 13,500 M^−1cm^−1
extinction coefficient ([1]; luminescence titration (612 nm signal, 340 nm photoexcitation), at 383 nm (ligand) / 357 nm (complex)): 14,200 M^−1 cm^−1
ε260/ε at λmax ([2]; TBS buffer, pH 7.6): 1.52
ε280/ε at λmax ([2]; TBS buffer, pH 7.6): 1.20
λmax ([2]; TBS buffer, pH 7.6): 358 nm
Φtotal at 365 nm excitation ([2]; TBS buffer, quinine sulfate as quantum yield standard): 28.8%
Lifetime ([2]; luminescence, HPLC purified Eu complexes): 734 μs
Structure (SMILES): NCCOCCNC(=O)C1CCCN(C(=O)c2cccc(=O)n2[O-])CCCNC(=O)c2ccc(n([O-])c2=O)C(=O)NC2COCC2NC(=O)c2ccc(c(=O)n2[O-])C(=O)NCCCN1C(=O)c1cccc(=O)n1[O-].[Eu+3] (mixture of isomers) [43⋅Eu]

Source: US10239878B2, “Macrocyclic ligands with pendant chelating moieties and complexes thereof” (LUMIPHORE, INC., priority 2016, dated 2019)
